Experimental data taken from patent US20220233743A1, “WOUND CLOSURE ENHANCEMENT METHODS AND MATERIALS VIA MANIPULATION OR AUGMENTATION OF LIPIN-1” (Board of Supervisors of Louisiana State University and …, priority 2019, published 2022).

Tested on: BMDMs
Assay: Central carbon analysis of IL-4 treated BMDMs
Assay type: cell-based, mouse
Conditions: 40 ng/ml IL-4 for 4 h
Procedure: BMDMs from lipin-1^mKO and littermate control mice were seeded at a density of 1×10^6/ml into Falcon tubes (60818-500; VWR). Cells were either treated with or without IL-4 (40 ng/ml) for 4 h. Cells were then collected and spun at 400×g for 5 min. Cell pellets were sent to Creative Proteomics (Shirley, N.Y.) for central carbon analysis.
Macrophages need to align individual metabolic pathways to effectively respond to stimuli. The inventors wanted to understand the consequences of lipin-1 activity on immunometabolic responses in macrophages after stimulation with IL-4. WT and lipin-1 KO macrophages were stimulated with and without 40 ng/ml IL-4 for 4 h. Cell pellets were then sent to Creative Proteomics for central carbon analysis to determine the abundance of metabolites in major metabolic pathways, such as glycolysis, TCA cycle, and PPP. At baseline, lipin-1-deficient macrophages have an altered metabolism compared with WT macrophages. Lipin-1 KO BMDMs have multiple elevated glycolytic metabolites compared with WT BMDMs (FIGS. 10 and 43). […] The inventors also see an increase in metabolites within the PPP (FIG. 10). Upregulation of the PPP can result in increased NADPH (FIG. 10).
The alterations in metabolism in lipin-1-deficient BMDMs at baseline were exacerbated upon stimulation with IL-4. […] The TCA cycle generates electron carriers (NADH) that are used by the electron transport chain to generate ATP as part of oxidative phosphorylation. […] Lipin-1-deficient macrophages have an increase in the initial metabolites of the PPP, 6P-gluconate. The conversion of glucose-6P to 6P-gluconate generates NADPH, which can be used in lipid synthetic pathways (FIG. 10). […] Complete central carbon analysis can be found is found below: […]

## IL-4: cytokine IL-4 (R&D Biosystems, 404-ML-050) used to stimulate macrophages; optional component of the claimed composition
KO (lipin-1mKO) BMDMs
  6P-Gluconate, Mean: 0.02073
  ADP, Mean: 0.6171
  ADP-Glucose, Mean: 0.0026
  AMP, Mean: 2.121
  ATP, Mean: 0.24
  Acetyl-CoA, Mean: 0.00588
  Acetyl-Phosphate, Mean: 0.4686
  Acetylglucosamine-1P, Mean: 0.1085
  Acetylglucosamine-6P, Mean: 0.4128
  Citrate, Mean: 17.69
  DHAP, Mean: 0.05052
  Erythrose-4P, Mean: 0.03703
  Fructose-1,6-bisP, Mean: 0.02422
  Fructose-1P, Mean: 0.00893
  Fructose-6P, Mean: 0.05762
  Fumarate, Mean: 15.48
  GDP, Mean: 0.1098
  GMP, Mean: 14.33
  GTP, Mean: 0.0303
  Glucosamine-6P, Mean: 0.03932
  Glucose, Mean: 70.05
  Glucose-1,6-bisP, Mean: 0.04135
  Glucose-1P, Mean: 0.03615
  Glucose-6P, Mean: 0.09843
  Glyceraldehyde-3P, Mean: 0.1128
  Glycerate-2,3P, Mean: 0.00052
  Glycerate-2P, Mean: 0.00902
  Glycerate-3P, Mean: 0.07625
  Glycerol-3P, Mean: 0.8631
  Glycolate, Mean: 20.92
  Hs-CoA, Mean: 0.0443
  Isocitrate, Mean: 0.2094
  Latate, Mean: 1872
  Malate, Mean: 73.43
  Mannose-6P, Mean: 0.01255
  NAD+, Mean: 0.3551
  NADH, Mean: 0.3515
  NADP+, Mean: 0.1139
  NADPH, Mean: 0.1752
  PEP, Mean: 0.04492
  Phosphocreatine, Mean: 0.2338
  Pyruvate, Mean: 35.61
  Ribose-1,5bisP, Mean: 0.00195
  Ribose-5P, Mean: 0.07803
  Ribulose-1,5bisP, Mean: 0.02412
  Ribulose-5P, Mean: 0.1828
  Sedoheptulose-7P, Mean: 0.05303
  Succinate, Mean: 36.15
  Succinyl-CoA, Mean: 0.0234
  UDP, Mean: 0.1803
  UDP-Glucose, Mean: 0.5266
  UDP-acetylglucosamine, Mean: 0.9395
  UMP, Mean: 16.84
  UTP, Mean: 4.409
  cyclic-ADPR, Mean: 0.3267
  cyclic-AMP, Mean: 0.0031
  cyclic-UMP, Mean: 0.00447
  α-Ketoglutarate, Mean: 3.985
WT BMDMs
  6P-Gluconate, Mean: 0.01622
  ADP, Mean: 0.8758
  ADP-Glucose, Mean: 0.00298
  AMP, Mean: 2.316
  ATP, Mean: 0.2736
  Acetyl-CoA, Mean: 0.00738
  Acetyl-Phosphate, Mean: 0.496
  Acetylglucosamine-1P, Mean: 0.1361
  Acetylglucosamine-6P, Mean: 0.5132
  Citrate, Mean: 15.89
  DHAP, Mean: 0.05342
  Erythrose-4P, Mean: 0.05778
  Fructose-1,6-bisP, Mean: 0.0196
  Fructose-1P, Mean: 0.00392
  Fructose-6P, Mean: 0.06408
  Fumarate, Mean: 19.48
  GDP, Mean: 0.1479
  GMP, Mean: 15.29
  GTP, Mean: 0.04348
  Glucosamine-6P, Mean: 0.04035
  Glucose, Mean: 53.46
  Glucose-1,6-bisP, Mean: 0.04287
  Glucose-1P, Mean: 0.03848
  Glucose-6P, Mean: 0.1044
  Glyceraldehyde-3P, Mean: 0.1365
  Glycerate-2,3P, Mean: 0.00063
  Glycerate-2P, Mean: 0.00803
  Glycerate-3P, Mean: 0.0653
  Glycerol-3P, Mean: 0.982
  Glycolate, Mean: 19.94
  Hs-CoA, Mean: 0.0517
  Isocitrate, Mean: 0.1146
  Latate, Mean: 2685
  Malate, Mean: 87.07
  Mannose-6P, Mean: 0.01458
  NAD+, Mean: 0.3884
  NADH, Mean: 0.5159
  NADP+, Mean: 0.1431
  NADPH, Mean: 0.1122
  PEP, Mean: 0.03792
  Phosphocreatine, Mean: 0.2747
  Pyruvate, Mean: 37.78
  Ribose-1,5bisP, Mean: 0.00238
  Ribose-5P, Mean: 0.08472
  Ribulose-1,5bisP, Mean: 0.02488
  Ribulose-5P, Mean: 0.2631
  Sedoheptulose-7P, Mean: 0.04902
  Succinate, Mean: 52.07
  Succinyl-CoA, Mean: 0.02933
  UDP, Mean: 0.2351
  UDP-Glucose, Mean: 0.5467
  UDP-acetylglucosamine, Mean: 1.096
  UMP, Mean: 18
  UTP, Mean: 5.48
  cyclic-ADPR, Mean: 0.3519
  cyclic-AMP, Mean: 0.00362
  cyclic-UMP, Mean: 0.00372
  glycolytic and TCA cycle metabolites on IL-4 stimulation: significant increase
  α-Ketoglutarate, Mean: 3.785
lipin-1 KO macrophages
  TCA metabolite succinate on IL-4 stimulation: decrease
  isocitrate on IL-4 stimulation: significant increase
